Experimental findings from ChEMBL document CHEMBL1201862, “PubChem BioAssay data set” (2004) are described below.

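In this assay, cells in 96-well plates receive the compound at five concentrations for 48 hours. Endpoints are linearly interpolated between the surrounding concentrations. The concentration for 50% growth inhibition is given as GI50.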 The source made the active and inactive calls. No stated cut-off is given here; in the data, active = GI50 up to about 1.1 µM and inactive = higher.

Among the test systems are MDA-MB-435; SF-268; HOP-92; NCI-H23; SK-MEL-5; Malme-3M; HT-29; UACC-257; HCT-15; KM12; IGROV-1; SF-295; HCC 2998; EKVX; OVCAR-5; SNB-75; RXF 393; HL-60; UO-31; RPMI-8226.
Common to all, as to assay: DTP human tumour cell line panel, 48 h

By GI50 is commonly meant the concentration that inhibits growth by half. Regarding `CCC(=O)Nc1ccc(NCC(=O)Nc2ccc(Cl)cc2)cc1`, the GI50 was 15.7 µM (inactive) in the test with MDA-MB-435; 22.6 µM (inactive) in the test with SF-268; 17.6 µM (inactive) with HOP-92; 18.5 µM (inactive) in the test with NCI-H23; 15.8 µM (inactive) in the test with SK-MEL-5; 19.7 µM (inactive) with Malme-3M. The GI50 in the test on HT-29 was 10.6 µM (inactive); with UACC-257, 16.6 µM (inactive); in the test on HCT-15, 14.4 µM; in the test with KM12, 12.7 µM (inactive); with IGROV-1, 18.4 µM (inactive); in the test on SF-295, 14.4 µM (inactive). Further, the GI50 in the test on HCC 2998 is 13.2 µM (inactive); in the test with EKVX it was 14 µM (inactive); in the test with OVCAR-5 it was 13.9 µM (inactive); in the test with SNB-75, 25.5 µM (inactive); with RXF 393, 16.5 µM (inactive); with HL-60 it was 14.1 µM (inactive). The GI50 was 22.3 µM (inactive) with UO-31 and 21.2 µM (inactive) in the test on RPMI-8226.
For `COC(=O)CN1Cc2cc(C)cc(c2O)CN(CC(=O)OC)Cc2cc(C)cc(c2O)CN(CC(=O)OC)Cc2cc(C)cc(c2O)C1`, the GI50 is > 100 µM (inactive) in the test on MDA-MB-435; > 100 µM (inactive) in the test on SF-268; > 81.8 µM (inactive) in the test with HOP-92; > 100 µM (inactive) in the test on NCI-H23; > 57.5 µM (inactive) in the test with SK-MEL-5; > 100 µM (inactive) in the test with Malme-3M. The GI50 in the test on HT-29 is > 47.9 µM (inactive); in the test on UACC-257 it was > 100 µM (inactive); in the test with HCT-15 it was over 66.4 µM; in the test on KM12, > 56.2 µM (inactive); with IGROV-1 it was > 100 µM (inactive); in the test with SF-295, > 61.8 µM (inactive). Also, the GI50 in the test on HCC 2998 was 2.03 µM (inactive); in the test with EKVX, > 100 µM (inactive); in the test with OVCAR-5, 26.4 µM (inactive); in the test with SNB-75, > 33.4 µM (inactive); with RXF 393, > 33.7 µM (inactive); in the test with HL-60, 15.4 µM (inactive). Moreover, the results for the GI50 with UO-31 and in the test with RPMI-8226 were > 44 µM (inactive) and > 100 µM (inactive), respectively.
Regarding `CCCN1CN(c2ccccc2)C2(CCN(CCCC(=O)c3ccc(F)cc3)CC2)C1=O`, the GI50 was 11 µM (inactive) in the test with MDA-MB-435; 5.56 µM (inactive) with SF-268; 3.41 µM (inactive) in the test with HOP-92; 4.12 µM (inactive) in the test with NCI-H23; 1.44 µM (inactive) in the test on SK-MEL-5; 14.9 µM (inactive) with Malme-3M. For the same molecule, the concentration for 50% growth inhibition (GI50) in the test on HT-29 was 0.631 µM (active); in the test on UACC-257, 0.405 µM (active); in the test with HCT-15, 4.31 µM; in the test with KM12 it was 16.3 µM (inactive); in the test on IGROV-1 it was 2.54 µM (inactive); in the test on SF-295, 11 µM (inactive). In addition, the GI50 with HCC 2998 was 7.82 µM (inactive); in the test with EKVX, 14 µM (inactive); in the test with OVCAR-5, 5.06 µM (inactive); in the test on SNB-75, 15 µM (inactive); with RXF 393, 16.8 µM (inactive); in the test with HL-60, 16.6 µM (inactive). For the same molecule, the GI50 in the test with UO-31 is 11.8 µM (inactive); with RPMI-8226, 12.4 µM (inactive).
With `CCOc1ccc(NC(=O)/C(=N\N)C(C(=O)OC)c2nc3ccc(Cl)cc3nc2O)cc1` (stereo not given), the GI50 in the test with MDA-MB-435, in the test with SF-268, in the test on HOP-92, in the test with NCI-H23, with SK-MEL-5 and with Malme-3M was > 100 µM (inactive) each time. Further, the GI50 in the test with HT-29 was > 100 µM (inactive); in the test with UACC-257, > 100 µM (inactive); in the test with HCT-15 it was over 100 µM; with KM12, > 100 µM (inactive); in the test with IGROV-1, 79.1 µM (inactive); with SF-295, > 100 µM (inactive). In addition, the GI50 with HCC 2998 is > 100 µM (inactive); in the test with EKVX, 33 µM (inactive); with OVCAR-5, > 100 µM (inactive); with SNB-75, > 100 µM (inactive); in the test with RXF 393, > 100 µM (inactive); in the test on HL-60, > 100 µM (inactive). In addition, the GI50 in the test on UO-31 is 72.3 µM (inactive); in the test on RPMI-8226, > 100 µM (inactive).
With `COc1ccc(N2C(=O)C(=O)N(c3ccc(/N=N\c4ccccc4)cc3)C2=S)cc1`, the GI50 in the test with MDA-MB-435 was 22.8 µM (inactive); with SF-268, 22.1 µM (inactive); in the test on HOP-92, 16.8 µM (inactive); in the test with NCI-H23 it was 18.5 µM (inactive); with SK-MEL-5, 16.7 µM (inactive); in the test on Malme-3M, 18.5 µM (inactive). For the same molecule, the GI50 in the test with HT-29 was 18.6 µM (inactive); in the test on UACC-257, 18.4 µM (inactive); with HCT-15, 17.2 µM; in the test with KM12, 17.5 µM (inactive); with IGROV-1, 16.6 µM (inactive); in the test with SF-295, 18.7 µM (inactive). Further, the GI50 in the test on HCC 2998 was 16.4 µM (inactive); in the test with EKVX, 17.9 µM (inactive); in the test with OVCAR-5 it was 21.1 µM (inactive); in the test with SNB-75, 22.6 µM (inactive); with RXF 393, 17.3 µM (inactive); with HL-60 it was 47.3 µM (inactive). The results for the GI50 in the test on UO-31 and in the test with RPMI-8226 were 16.3 µM (inactive) and 40.7 µM (inactive), respectively.
On to `C[C@@H](NC(=O)c1ccc(CNC(=O)/C=C/c2cccc(Oc3ccccc3)c2)cc1)c1ccccc1`, for which the GI50 was > 100 µM (inactive) in the test with MDA-MB-435; 20.8 µM (inactive) in the test with SF-268; 59.7 µM (inactive) with HOP-92; > 100 µM (inactive) with NCI-H23; 99.8 µM (inactive) in the test with SK-MEL-5; > 76.2 µM (inactive) in the test with Malme-3M. The GI50 in the test on HT-29 was 22.6 µM (inactive); with UACC-257 it was 55.7 µM (inactive); with HCT-15, over 100 µM; in the test with KM12, > 100 µM (inactive); in the test with IGROV-1, 48.1 µM (inactive); in the test with SF-295 it was 26.8 µM (inactive). In addition, the GI50 in the test on HCC 2998 was > 100 µM (inactive); with EKVX it was 21.8 µM (inactive); in the test on OVCAR-5, 78.9 µM (inactive); with SNB-75 it was 6.18 µM (inactive); in the test on RXF 393, 2.51 µM (inactive); in the test with HL-60 it was > 100 µM (inactive). In addition, the GI50 is 10.7 µM (inactive) with UO-31 and > 100 µM (inactive) with RPMI-8226.
As for `NC1=Nc2ccccc2Sc2cccc(F)c21`, the GI50 with MDA-MB-435 is 74 µM (inactive); with SF-268, > 100 µM (inactive); in the test with HOP-92, > 100 µM (inactive); with NCI-H23, 48.6 µM (inactive); in the test with SK-MEL-5, 38 µM (inactive); in the test on Malme-3M, > 100 µM (inactive). The GI50 with HT-29 was > 100 µM (inactive); with UACC-257, 46.3 µM (inactive); with HCT-15 it was over 100 µM; with KM12, 97.7 µM (inactive); with IGROV-1 it was > 100 µM (inactive); in the test with SF-295, 40.4 µM (inactive). Also, the GI50 with HCC 2998 was > 100 µM (inactive); in the test with EKVX it was 50.9 µM (inactive); in the test on OVCAR-5, > 100 µM (inactive); in the test on SNB-75 it was 46.5 µM (inactive); in the test with RXF 393, 24.9 µM (inactive); in the test on HL-60, 24 µM (inactive). Further, the GI50 with UO-31 was 84.5 µM (inactive); in the test with RPMI-8226, 36 µM (inactive).
Regarding `Nc1cccc(Nc2nc3ccccc3nc2NS(=O)(=O)c2ccccc2)c1`, the GI50 with MDA-MB-435 is 23.6 µM (inactive); with SF-268 it was 55.2 µM (inactive); in the test with HOP-92, 23.3 µM (inactive); with NCI-H23, 12.9 µM (inactive); in the test on SK-MEL-5, 15.4 µM (inactive); in the test with Malme-3M it was 28.6 µM (inactive). Further, the GI50 in the test with HT-29 is 27.1 µM (inactive); in the test with UACC-257, 31.3 µM (inactive); with HCT-15 it was 25.6 µM; in the test with KM12, 18.8 µM (inactive); in the test with IGROV-1, 24.5 µM (inactive); in the test on SF-295 it was 27.5 µM (inactive). The GI50 was 15.9 µM (inactive) in the test on HCC 2998; 43.9 µM (inactive) in the test on EKVX; 30.3 µM (inactive) in the test with OVCAR-5; 36.2 µM (inactive) with SNB-75; 18.3 µM (inactive) in the test with RXF 393; 20.7 µM (inactive) in the test with HL-60. For the same molecule, the GI50 in the test on UO-31 was 16 µM (inactive); with RPMI-8226, 16.7 µM (inactive).
`CC1=CC(C)(C)[C@H]2O[C@@]3(O)C[C@]4(C)[C@H]5C[C@@](C(C)C)(O[C@H]4c4ccoc4)O[C@H]4[C@]5(C3)O[C@@]1(O)[C@]24O`: the GI50 in the test on MDA-MB-435 is > 100 µM (inactive); in the test with SF-268, > 100 µM (inactive); in the test with HOP-92, 83.8 µM (inactive); in the test with NCI-H23, > 100 µM (inactive); in the test with SK-MEL-5, 44.2 µM (inactive); in the test on Malme-3M, 40.9 µM (inactive). In addition, the GI50 in the test with HT-29 is > 100 µM (inactive); in the test with UACC-257 it was > 100 µM (inactive); in the test on HCT-15 it was over 100 µM; in the test with KM12 it was > 100 µM (inactive); in the test with IGROV-1, > 100 µM (inactive); in the test on SF-295, > 100 µM (inactive). For the same molecule, the GI50 in the test with HCC 2998 was > 100 µM (inactive); in the test on EKVX, > 100 µM (inactive); in the test with OVCAR-5, > 100 µM (inactive); with SNB-75, 12.3 µM (inactive); in the test on RXF 393 it was > 100 µM (inactive); with HL-60, > 100 µM (inactive). Also, the GI50 with UO-31 and in the test with RPMI-8226 was > 100 µM (inactive) throughout.
For `CC(=O)Nc1ccc(C2SCc3nc4ccccc4n32)cc1` (stereo not given), the GI50 in the test with MDA-MB-435 is > 100 µM (inactive); in the test on SF-268, 55.2 µM (inactive); in the test with HOP-92 it was 57.7 µM (inactive); with NCI-H23, 34.6 µM (inactive); in the test on SK-MEL-5 it was 60.1 µM (inactive); with Malme-3M it was 34.7 µM (inactive). Besides, the GI50 with HT-29 was > 100 µM (inactive); with UACC-257, 57.4 µM (inactive); with HCT-15 it was 47.3 µM; in the test with KM12, > 100 µM (inactive); in the test on IGROV-1, > 91 µM (inactive); in the test with SF-295 it was 87.9 µM (inactive). For the same molecule, the GI50 with HCC 2998 is > 100 µM (inactive); with EKVX, 87.9 µM (inactive); with OVCAR-5, > 100 µM (inactive); in the test on SNB-75 it was 34.4 µM (inactive); in the test on RXF 393 it was > 100 µM (inactive); with HL-60, 82 µM (inactive). In addition, the GI50 in the test on UO-31 is 44.3 µM (inactive); in the test with RPMI-8226, 47.6 µM (inactive).
